Key:
Assay type in all cases: in vivo
[1] = Experiment 6 sensory evaluation of cyclic dipeptides, “top sharp saltiness”
Protocol: (§1) An aqueous solution in which the concentration of each of the cyclic dipeptides shown in the table described below is set to be the same as its concentration in the heat-treated coriander prepared in 1.1. described above, as estimated from the ratio of the peak area of the cyclic dipeptides to the peak area of the internal standard (47 μg/g of L-lysine-^13C6 monohydrochloride) (hereinafter referred to as “heat-treated coriander equivalent aqueous solution”) was prepared. An aqueous solution in which the concentration of each of the cyclic dipeptides is set to be the same as its concentration in the heat-treated paprika of Example 203 prepared in 2.1 described above (hereinafter referred to as “heat-treated paprika equivalent aqueous solution”) was also prepared. Cyclic dipeptides prepared by the applicant were used in this experiment. As a cyclic dipeptide comprising Leu/Ile, a mixture comprising equal parts of cyclic dipeptide comprising Leu and cyclic dipeptide comprising Ile was used.
(§2) Common and reduced-sodium curry rouxes were prepared according to the procedures described in (1) and (2) of 1.3. described above.
(§3) Two dispersions of 44 g of the aforesaid reduced-sodium curry roux dispersed in 300 g of hot water were prepared. To one of them was added the heat-treated coriander equivalent solution or heat-treated paprika equivalent aqueous solution of the individual cyclic dipeptides shown in the table described below so as to be in the final concentration of 0.5% (w/w) or 1.0% (w/w), respectively.
(§4) Forty-four grams of the aforesaid common curry roux was dispersed in 300 g of hot water.
(§5) The dispersion of reduced-sodium curry roux dispersed in hot water and the dispersion of common curry roux dispersed in hot water were used as comparative controls, and the strength of the flavor was evaluated by three evaluators on the basis of the following evaluation criteria from the viewpoint of “top sharp saltiness”, “middle fullness (enhanced thickness) and “boosting of last flavor (aftertaste).”
(§6) The average of the evaluated scores was defined as “F” when it was 1.0 or lower, “C” when it was 1.1 or higher and 1.9 or lower, “B” when it was 2.0 or higher and 2.5 or lower, “A” when it was 2.6 or higher and 2.9 or lower, and “AA” when it was 3.0 or higher.
(§7) In the table described below, “ID” refers to the compound ID described above. The items of “coriander 0.5%” and “coriander 1.0%” refer to the addition of the aforesaid heat-treated coriander equivalent aqueous solution of cyclic dipeptide so that the final concentrations may be 0.5% (w/w) and 1.0% (w/w), respectively. The items of “paprika 0.5%” and “paprika 1.0%” refer to the addition of the aforesaid heat-treated paprika equivalent aqueous solution of cyclic dipeptide so that the final concentration may be 0.5% (w/w) and 1.0% (w/w), respectively.

[2] = Experiment 6 sensory evaluation of cyclic dipeptides, “middle fullness (enhanced thickness)”
Protocol: as §1, §2, §3, §4, §5, §6, §7

[3] = Experiment 6 sensory evaluation of cyclic dipeptides, “boosting of last flavor (aftertaste)”
Protocol: as §1, §2, §3, §4, §5, §6, §7

[4] = Additive amount coriander 0.5% (heat-treated coriander equivalent aqueous solution, final 0.5% (w/w)), reduced-sodium curry roux
[5] = Additive amount coriander 0.5%, reduced-sodium curry roux
[6] = heat-treated coriander equivalent aqueous solution of cyclic dipeptide, final 1.0% (w/w) in reduced-sodium curry roux dispersion
[7] = heat-treated coriander equivalent aqueous solution of cyclic dipeptide, final 1.0% (w/w) in reduced-sodium curry roux dispersion, 3 evaluators
[8] = Additive amount paprika 0.5% (heat-treated paprika equivalent aqueous solution, final 0.5% (w/w)), reduced-sodium curry roux
[9] = Additive amount paprika 0.5%, reduced-sodium curry roux
[10] = heat-treated paprika equivalent aqueous solution of cyclic dipeptide, final 1.0% (w/w) in reduced-sodium curry roux dispersion
[11] = heat-treated paprika equivalent aqueous solution of cyclic dipeptide, final 1.0% (w/w) in reduced-sodium curry roux dispersion, 3 evaluators

Row | Substance | Top sharp saltiness Average [1, 4] [points] | Top sharp saltiness Evaluation [1, 5] | Top sharp saltiness Evaluation [1, 6] | Top sharp saltiness Average [1, 7] [points] | Middle fullness Average [2, 5] [points] | Middle fullness Evaluation [2, 5] | Middle fullness Evaluation [2, 6] | Middle fullness Average [2, 7] [points] | Bosting of last flavor Average [3, 5] [points] | Bosting of last flavor Evaluation [3, 5] | Bosting of last flavor Evaluation [3, 6] | Bosting of last flavor Average [3, 7] [points] | Top sharp saltiness Average [1, 8] [points] | Top sharp saltiness Evaluation [1, 9] | Top sharp saltiness Evaluation [1, 10] | Top sharp saltiness Average [1, 11] [points] | Middle fullness Average [2, 9] [points] | Middle fullness Evaluation [2, 9] | Middle fullness Evaluation [2, 10] | Middle fullness Average [2, 11] [points] | also measured
1 | cyclic (Arg-Leu/Ile) [Coriander ID 22] | 2.6 | A (“A” when it was 2.6 or higher and 2.9 or lower) | B (“B” when it was 2.0 or higher and 2.5 or lower) | 2.0 | 2.6 | A (“A” when it was 2.6 or higher and 2.9 or lower) | B (“B” when it was 2.0 or higher and 2.5 or lower) | 2.5 | 2.7 | A (“A” when it was 2.6 or higher and 2.9 or lower) | A (“A” when it was 2.6 or higher and 2.9 or lower) | 2.8 | – | – | – | – | – | – | – | – | –
2 | cyclic (Glu-Leu/Ile) [Coriander ID 47] | 2.3 | B (“B” when it was 2.0 or higher and 2.5 or lower) | B (“B” when it was 2.0 or higher and 2.5 or lower) | 2.2 | 2.8 | A (“A” when it was 2.6 or higher and 2.9 or lower) | B (“B” when it was 2.0 or higher and 2.5 or lower) | 2.3 | 3.0 | AA (“AA” when it was 3.0 or higher) | A (“A” when it was 2.6 or higher and 2.9 or lower) | 2.7 | – | – | – | – | – | – | – | – | –
3 | cyclic (Phe-Asp) [Coriander ID 34] | – | – | – | – | – | – | – | – | – | – | – | – | 3.0 | AA (“AA” when it was 3.0 or higher) | AA (“AA” when it was 3.0 or higher) | 3.2 | 2.8 | A (“A” when it was 2.6 or higher and 2.9 or lower) | AA (“AA” when it was 3.0 or higher) | 3.2 | Bosting of last flavor Average [3, 9]: 2.7 points; Bosting of last flavor Evaluation [3, 9]: A (“A” when it was 2.6 or higher and 2.9 or lower); Bosting of last flavor Evaluation [3, 10]: AA (“AA” when it was 3.0 or higher); Bosting of last flavor Average [3, 11]: 3.2 points
4 | cyclic (Gly-Gly) [Coriander ID 54] | 2.2 | B (“B” when it was 2.0 or higher and 2.5 or lower) | A (“A” when it was 2.6 or higher and 2.9 or lower) | 2.8 | 2.5 | B (“B” when it was 2.0 or higher and 2.5 or lower) | A (“A” when it was 2.6 or higher and 2.9 or lower) | 2.7 | 3.0 | AA (“AA” when it was 3.0 or higher) | B (“B” when it was 2.0 or higher and 2.5 or lower) | 2.3 | – | – | – | – | – | – | – | – | –
5 | cyclic (Pro-Pro) [Coriander ID 18] | 2.2 | B (“B” when it was 2.0 or higher and 2.5 or lower) | B (“B” when it was 2.0 or higher and 2.5 or lower) | 2.3 | 2.5 | B (“B” when it was 2.0 or higher and 2.5 or lower) | A (“A” when it was 2.6 or higher and 2.9 or lower) | 2.7 | 2.3 | B (“B” when it was 2.0 or higher and 2.5 or lower) | B (“B” when it was 2.0 or higher and 2.5 or lower) | 2.5 | – | – | – | – | – | – | – | – | –
6 | cyclic (Gly-Arg) [Coriander ID 7] | 2.5 | B (“B” when it was 2.0 or higher and 2.5 or lower) | C (“C” when it was 1.1 or higher and 1.9 or lower) | 1.3 | 3.2 | AA (“AA” when it was 3.0 or higher) | C (“C” when it was 1.1 or higher and 1.9 or lower) | 1.7 | 3.0 | AA (“AA” when it was 3.0 or higher) | C (“C” when it was 1.1 or higher and 1.9 or lower) | 1.5 | – | – | – | – | – | – | – | – | –
7 | cyclic (Pro-Asp) [Coriander ID 16] | – | – | – | – | – | – | – | – | – | – | – | – | 1.8 | C (“C” when it was 1.1 or higher and 1.9 or lower) | C (“C” when it was 1.1 or higher and 1.9 or lower) | 1.8 | 2.0 | B (“B” when it was 2.0 or higher and 2.5 or lower) | B (“B” when it was 2.0 or higher and 2.5 or lower) | 2.0 | Bosting of last flavor Average [3, 9]: 2.2 points; Bosting of last flavor Evaluation [3, 9]: B (“B” when it was 2.0 or higher and 2.5 or lower); Bosting of last flavor Evaluation [3, 10]: C (“C” when it was 1.1 or higher and 1.9 or lower); Bosting of last flavor Average [3, 11]: 1.8 points
8 | cyclic (Phe-Ser) | – | – | – | – | – | – | – | – | – | – | – | – | 2.3 | B (“B” when it was 2.0 or higher and 2.5 or lower) | B (“B” when it was 2.0 or higher and 2.5 or lower) | 2.2 | 2.8 | A (“A” when it was 2.6 or higher and 2.9 or lower) | B (“B” when it was 2.0 or higher and 2.5 or lower) | 2.3 | Bosting of last flavor Average [3, 9]: 3.0 points; Bosting of last flavor Evaluation [3, 9]: AA (“AA” when it was 3.0 or higher); Bosting of last flavor Evaluation [3, 10]: B (“B” when it was 2.0 or higher and 2.5 or lower); Bosting of last flavor Average [3, 11]: 2.3 points
